# Patent publication US10266526B2, “Substituted 1,2,3-triazoles as SMYD inhibitors for treating cancer” (EPIZYME, INC., priority 2014, dated 2019)
# Structures can show the parent of a compound that is named as a salt.
# What was measured:
# SMYD3 [1] = target: T1, SMYD3 (Homo sapiens (Human), UniProt Q9H7B4); test: SMYD3 biochemical assay (SMYD3 enzyme assay on MEKK2 protein substrate, 3H-SAM scintillation proximity assay); settings: read-out: SMYD3 Biochem IC50
# Procedure, shortened: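 Native full-length human SMYD3, expressed in E. coli, was preincubated with compound for 30 min at room temperature in 25 mM Tris-Cl pH 8.0, 1 mM TCEP, 0.005% BSG and 0.005% Tween 20. ³H-SAM plus GST-MEKK2 then started the reaction. It was stopped with unlabeled SAM (100 uM final), and methylated MEKK2 was read by SPA.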
# SMYD3 [2] = target: T1, SMYD3; test: SMYD3 cell assay (Trimethyl-MEKK2 In-Cell Western in 293T/17 cells transfected with MEKK2-flag and SMYD3); assay type: cell-based; settings: Table 3A; average of n = 1 to n = 50; read-out: SMYD3 cell IC50
# Text: Trimethyl-MEKK2-in-Cell Western Assay
# MEM/Glutamax medium, Optimem Reduced Serum medium, penicillin-streptomycin, 0.05% trypsin and 1×D-PBS were purchased from Life Technologies, Grand Island, N.Y., USA. PBS-10× was purchased from Ambion, Life Technologies, Grand Island, N.Y., USA. PBS with Tween 20 (PBST (10×)) was purchased from KPL, Gaithersburg, Md., USA. Tet System FBS-approved FBS US Source was purchased from Clontech, Mountain View, Calif., USA. Odyssey blocking buffer, 800CW goat anti-rabbit IgG (H+L) antibody, 680CW Goat anti-mouse IgG (H+L) and Licor Odyssey infrared scanner were purchased from Licor Biosciences, Lincoln, Nebr., USA. Tri-methyl-Lysine [A260]-MEKK2 antibody, MEKK2 and SMYD3 plasmids were made at Epizyme. Anti-flag monoclonal mouse antibody was purchased from Sigma, St. Louis, Mo., USA. Methanol was purchased from VWR, Franklin, Mass., USA. 10% Tween 20 was purchased from KPL, Inc., Gaithersburg, Md., USA. Fugene was purchased from Promega, Madison, Wis., USA. The Biotek ELx405 was purchased from BioTek, Winooski, Vt., USA. The multidrop combi was purchased from Thermo Scientific, Waltham, Mass., USA.
# Cell Treatment, in Cell Western (ICW) for Detection of Trimethyl-Lysine-MEKK2 and MEKK2.
# Plasmids were prepared for delivery to cells by first mixing 1350 μL Opti-MEM with Fugene (81 μL) in a sterile Eppendorf and incubated for five minutes at room temperature (RT). […] Entire volume of Opti-MEM/Fugene mixture was then added to a microfuge tube containing DNA plasmid, mixed and then incubated ×15 minutes at RT. […] Medium was then removed, and cells were washed once with PBS in the flask. Trypsin 0.05% (3 mL) was added and cells incubated for three minutes. Room temperature MEM+10% Tet system FBS was added and cells were mixed gently, and counted using the Vi-cell. Cells were seeded at 100,000 cells/mL in 50 μL MEM/10% Tet FBS/Pen/Strep to a 384 well black/clear poly-D-lysine coated plate containing test agent diluted in DMSO. The final top concentration of test compound was 40 μM. […] Plates were incubated ×30 minutes at RT in low-airflow area, followed by incubation at 37° C. under 5% CO2 for 24 hours. Medium was aspirated from all wells of assay plates prior to fixation and permeabilization with ice cold (−20° C.) methanol (90 μL/well) for ten minutes. Plates were rinsed with PBS three times on BioTek ELx405. PBS was removed with a final aspiration, and Odyssey blocking buffer (50 μL/well) was added to each well and incubated for one hour at RT. Primary antibody solution was prepared (anti-trimethyl-MEKK2 at 1:600 dilution plus mouse anti-flag antibody at 1:10,000 dilution in diluent (Odyssey Blocking buffer+0.1% Tween 20)) and 20 μL per well was dispensed using the Multidrop Combi. Assay plates were then sealed with foil, and incubated overnight at 4° C. Plates were washed five times with PBS-Tween (1×) on Biotek ELx405 and blotted on paper towel to remove excess reagent.
# First, the ratio for each well was determined by:
# Each plate included fourteen control wells of DMSO only treatment (Minimum Inhibition) as well as fourteen control wells for maximum inhibition (Background). The average of the ratio values for each control type was calculated and used to determine the percent inhibition for each test well in the plate. Reference compound was serially diluted two-fold in DMSO for a total of nine test concentrations, beginning at 40 μM. Percent inhibition was calculated (below).
# Non-linear regression curves were generated to calculate the IC50 and dose-response relationship using triplicate wells per concentration of compound.
# [3] = Table 3A, average of n = 1 to n = 50
# T1 sequence (Q9H7B4 whole entry): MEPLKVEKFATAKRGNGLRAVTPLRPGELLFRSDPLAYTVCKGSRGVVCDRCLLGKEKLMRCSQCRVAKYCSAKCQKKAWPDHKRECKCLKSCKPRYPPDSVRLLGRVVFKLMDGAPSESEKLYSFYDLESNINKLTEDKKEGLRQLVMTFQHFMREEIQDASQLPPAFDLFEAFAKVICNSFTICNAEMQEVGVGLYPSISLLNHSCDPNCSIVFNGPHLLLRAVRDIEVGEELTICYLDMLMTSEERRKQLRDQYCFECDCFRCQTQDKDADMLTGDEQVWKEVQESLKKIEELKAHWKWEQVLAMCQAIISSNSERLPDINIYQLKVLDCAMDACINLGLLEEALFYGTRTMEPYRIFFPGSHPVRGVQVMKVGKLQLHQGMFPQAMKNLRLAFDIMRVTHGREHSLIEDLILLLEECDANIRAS
Structure (SMILES),IC50 (SMYD3 [1]; [3]),IC50 (SMYD3 [2]),IC50 (SMYD3 [1])
"C[C@H]1C[C@@H](NC(=O)c2cc3c(cc2Cl)NC(=O)C3)CCN1S(=O)(=O)c1ccc(C(C)(C)N)cc1 [compound 588, N-((2S,4S)-1-((4-(2-aminopropan-2-yl)phenyl)sulfonyl)-2-methylpiperidin-4-yl)-6-chloro-2-oxoindoline-5-carboxamide]",1.98 nM,356 nM,
"CNC1CCN(S(=O)(=O)N2[C@@H]3CC[C@H]2C[C@@H](NC(=O)c2ccc4c(c2)CC(=O)N4)C3)CC1 [compound 589, N-((1R,3r,5S)-8-((4-(methylamino)piperidin-1-yl)sulfonyl)-8-azabicyclo[3.2.1]octan-3-yl)-2-oxoindoline-5-carboxamide]",2.13 nM,987 nM,
"O=C1Cc2cc(C(=O)N[C@H]3C[C@H]4CC[C@@H](C3)N4S(=O)(=O)CC3CCCNC3)ccc2N1 (stereo partly drawn) [compound 590, 2-oxo-N-((1R,3r,5S)-8-((piperidin-3-ylmethyl)sulfonyl)-8-azabicyclo[3.2.1]octan-3-yl)indoline-5-carboxamide]",,768 nM,2.14 nM
"N[C@H]1CC[C@@H](S(=O)(=O)N2[C@@H]3CC[C@H]2C[C@@H](NC(=O)c2ccc4c(c2)CC(=O)N4)C3)CC1 [compound 591, N-((1R,3R,5S)-8-(((1s,4S)-4-aminocyclohexyl)sulfonyl)-8-azabicyclo[3.2.1]octan-3-yl)-2-oxoindoline-5-carboxamide]",,2310 nM,2.33 nM
"CN(C)C1CCN(S(=O)(=O)N2[C@@H]3CC[C@H]2C[C@@H](NC(=O)c2ccc4c(c2)CC(=O)N4)C3)CC1 [compound 593, N-((1R,3r,5S)-8-((4-(dimethylamino)piperidin-1-yl)sulfonyl)-8-azabicyclo[3.2.1]octan-3-yl)-2-oxoindoline-5-carboxamide]",2.89 nM,500 nM,
"CN(C)C1CCN(S(=O)(=O)N2[C@@H]3CC[C@H]2C[C@@H](NC(=O)c2cc4c(cc2Cl)NC(=O)C4)C3)CC1 [compound 594, 6-chloro-N-((1R,3r,5S)-8-((4-(dimethylamino)piperidin-1-yl)sulfonyl)-8-azabicyclo[3.2.1]octan-3-yl)-2-oxoindoline-5-carboxamide]",,301 nM,3.46 nM
"O=C1Cc2cc(C(=O)N[C@H]3C[C@H]4CC[C@@H](C3)N4S(=O)(=O)CC3CCNCC3)c(Cl)cc2N1 [compound 596, 6-chloro-2-oxo-N-((1R,3r,5S)-8-((piperidin-4-ylmethyl)sulfonyl)-8-azabicyclo[3.2.1]octan-3-yl)indoline-5-carboxamide]",3.6 nM,2660 nM,
"O=C1Cc2cc(C(=O)N[C@H]3C[C@H]4CC[C@@H](C3)N4S(=O)(=O)CC3CCNCC3)ccc2N1 [compound 597, 2-oxo-N-((1R,3r,5S)-8-((piperidin-4-ylmethyl)sulfonyl)-8-azabicyclo[3.2.1]octan-3-yl)indoline-5-carboxamide]",3.98 nM,3440 nM,
"O=C1Cc2cc(C(=O)N[C@H]3C[C@H]4CC[C@@H](C3)N4S(=O)(=O)C[C@H]3CCCNC3)c(Cl)cc2N1 [compound 598, 6-chloro-2-oxo-N-((1R,3S,5S)-8-((((S)-piperidin-3-yl)methyl)sulfonyl)-8-azabicyclo[3.2.1]octan-3-yl)indoline-5-carboxamide]",4.12 nM,1270 nM,
"C[C@H]1C[C@@H](NC(=O)c2ccc3c(c2)CC(=O)N3)CCN1S(=O)(=O)CC1CCNCC1 [compound 599, N-((2S,4S)-2-methyl-1-((piperidin-4-ylmethyl)sulfonyl)piperidin-4-yl)-2-oxoindoline-5-carboxamide]",4.42 nM,9490 nM,
"O=C1Cc2cc(C(=O)N[C@H]3C[C@H]4CC[C@@H](C3)N4S(=O)(=O)C[C@@H]3CCCNC3)c(Cl)cc2N1 [compound 600, 6-chloro-2-oxo-N-((1R,3R,5S)-8-((((R)-piperidin-3-yl)methyl)sulfonyl)-8-azabicyclo[3.2.1]octan-3-yl)indoline-5-carboxamide]",4.99 nM,728 nM,
"NC1CCN(S(=O)(=O)N2[C@@H]3CC[C@H]2C[C@@H](NC(=O)c2cc4c(cc2Br)NC(=O)C4)C3)CC1 [compound 602, N-((1R,3r,5S)-8-((4-aminopiperidin-1-yl)sulfonyl)-8-azabicyclo[3.2.1]octan-3-yl)-6-bromo-2-oxoindoline-5-carboxamide]",7.12 nM,3730 nM,
"C[C@H]1CN(S(=O)(=O)N2CCC(N)CC2)CCC1NC(=O)c1cc2c(cc1Cl)NC(=O)C2 (stereo partly drawn) [compound 603, N-((3S)-1-((4-aminopiperidin-1-yl)sulfonyl)-3-methylpiperidin-4-yl)-6-chloro-2-oxoindoline-5-carboxamide]",8.53 nM,2680 nM,
"CN1C(=O)Cc2cc(C(=O)N[C@H]3C[C@H]4CC[C@@H](C3)N4S(=O)(=O)N3CCC(N)CC3)c(Cl)cc21 [compound 604, N-((1R,3r,5S)-8-((4-aminopiperidin-1-yl)sulfonyl)-8-azabicyclo[3.2.1]octan-3-yl)-6-chloro-1-methyl-2-oxoindoline-5-carboxamide]",13.5 nM,207 nM,
"CCc1cc(C(=O)N[C@H]2CCN(S(=O)(=O)N3CCC(N)CC3)[C@@H](C)C2)ns1 [compound 605, N-((2S,4S)-1-(4-aminopiperidin-1-ylsulfonyl)-2-methylpiperidin-4-yl)-5-ethyl-1,2-thiazole-3-carboxamide Hydrochloride]",,201 nM,15.4 nM
"Cc1cc2c(cc1C(=O)N[C@H]1C[C@H]3CC[C@@H](C1)N3S(=O)(=O)N1CCC(N)CC1)CC(=O)N2 [compound 606, N-((1R,3r,5S)-8-((4-aminopiperidin-1-yl)sulfonyl)-8-azabicyclo[3.2.1]octan-3-yl)-6-methyl-2-oxoindoline-5-carboxamide]",15.6 nM,1790 nM,
"C[C@H]1C[C@@H](NC(=O)c2nnc(C3CC3)s2)CCN1S(=O)(=O)N1CCC(N)CC1 [compound 607, N-((2S,4S)-1-((4-aminopiperidin-1-yl)sulfonyl)-2-methylpiperidin-4-yl)-5-cyclopropyl-1,3,4-thiadiazole-2-carboxamide]",18.1 nM,205 nM,
"C[C@@H]1CN(S(=O)(=O)N2CCC(N)CC2)CC[C@H]1NC(=O)c1cc2c(cc1Cl)NC(=O)C2 [compound 608, N-((3R,4R)-1-((4-aminopiperidin-1-yl)sulfonyl)-3-methylpiperidin-4-yl)-6-chloro-2-oxoindoline-5-carboxamide]",21.4 nM,6240 nM,
"NC1CCN(S(=O)(=O)N2[C@@H]3CC[C@H]2C[C@@H](NC(=O)c2ccc4c(c2)NC(=O)CO4)C3)CC1 [compound 609, N-((1R,3r,5S)-8-(4-aminopiperidin-1-ylsulfonyl)-8-aza-bicyclo[3.2.1]octan-3-yl)-3-oxo-3,4-dihydro-2H-benzo[b][1,4]oxazine-6-carboxamide Hydrochloride]",23.7 nM,3700 nM,
"CN1C(=O)Cc2cc(C(=O)N[C@H]3C[C@H]4CC[C@@H](C3)N4S(=O)(=O)CC3CCNCC3)ccc21 [compound 611, 1-methyl-2-oxo-N-((1R,3r,5S)-8-((piperidin-4-ylmethyl)sulfonyl)-8-azabicyclo[3.2.1]octan-3-yl)indoline-5-carboxamide]",25.9 nM,3920 nM,
